Experimental data: patent US10745433B2, “Compounds for inhibiting cancer and virus” (priority 2016, dated 2020)
Entries after “also recorded” stand apart in the source; their conditions may differ. Where two headings read alike, the source gives them in different places. Blank lines part the entries; values can stand above or below the molecule they belong to.

Columns and labels:
[1] = system: MCF-7; test: Growth inhibition assay (MTT), MCF-7; assay type: cell-based; conditions: Homo sapiens
Description: (§1) The compounds of the invention were subjected to growth inhibition assay. Cells were seeded in 96-well plastic plates and exposed to the compounds of the invention for 72 hours. Cell viability was assessed using the 3-(4,5-dimethylthiazol-2-yl)-2,5-diphenyltetrazolium bromide assay.

[2] = system: MIAPACA; test: Growth inhibition assay (MTT), MIAPACA; assay type: cell-based; conditions: Homo sapiens, MIA PaCa-2, 72 hours
Description: as §1

[3] = system: Panc-1; test: Growth inhibition assay (MTT), Panc-1; assay type: cell-based; conditions: Homo sapiens, Panc-1, Pancreatic cancer, 72 hours
Description: as §1

[4] = system: PC3; test: Growth inhibition assay (MTT), PC3; assay type: cell-based; conditions: Homo sapiens
Description: as §1

[5] = system: MKN45; test: Growth inhibition assay (MTT), MKN45; assay type: cell-based; conditions: Homo sapiens
Description: as §1

[6] = system: DU145; test: Growth inhibition assay (MTT), DU145; assay type: cell-based; conditions: Homo sapiens
Description: as §1

[7] = system: HCT116; test: Growth inhibition assay (MTT), HCT116; assay type: cell-based; conditions: Homo sapiens
Description: as §1

[8] = system: LNCap; test: Growth inhibition assay (MTT), LNCap; assay type: cell-based; conditions: Homo sapiens
Description: as §1

[9] = system: HT29; test: Growth inhibition assay (MTT), HT29; assay type: cell-based; conditions: Homo sapiens
Description: as §1

[10] = system: N87; test: Growth inhibition assay (MTT), N87; assay type: cell-based
Description: as §1

[11] = system: human MDA-MB-231 breast adenocarcinoma; test: MDA-MB-231 xenograft animal model; assay type: in vivo; conditions: oral, female nude mice; for body weight: FIG. 1(B)
Description: (§2) Anti-cancer Activity Evaluation of the Compounds of the Invention (MPT0L167 and MPT0L179) Against Human MDA-MB-231 Breast Cancer in MDA-MB-231 Xenograft Animal Model and Human Colorectal Cancer HCT116 Xenograft Model […] This study utilized five groups of mice (n=7-8) bearing established human MDA-MB-231 breast adenocarcinoma with mean volumes of ˜250 mm^3.

[12] = system: Zika virus (PRVABC59 strain); test: Zika animals study; assay type: in vivo
Description: The Zika sensitive female mice: ROSA, STAT1^−/− strain was used. MPT0L167 was used to pre-treat the mice for one day. 4*10^7 cells (U-87 MG human glioblastoma cell with infection with Zika virus (PRVABC59 strain)) were injection in mice. After infection, MPT0L167 was administered with 100 mg/kg to the mice by po,qd. The virus detection in serum at day 3. The concentration of virus in serum was detected by Viralplaque assays.

[13] = Pharmacokinetic study (PK), i.v. in rats; assay type: in vivo; conditions: 2 mg/kg i.v.
Description: 2 mg/kg of niclosamide (MPT0L166) and MPT0L167, MPT0L180 and MPT0L196 were each independently given to five rats by i.v. The blood samples were taken from the rats after 0.03 hour, 0.08 hour, 0.25 hour, 0.5 hour, 1 hour, 2 hours, 4 hours, 6 hour, 8 hours and 24 hours. LC-MS/MS was used to detect the concentration of MPT0L167 in blood.

[14] = system: human HCT116 colorectal cancer; test: Human colorectal cancer HCT116 xenograft model; assay type: in vivo; conditions: oral, female nude mice; for body weight: FIG. 2(B)
Description: as §2, with “HCT116 colorectal cancer” for “MDA-MB-231 breast adenocarcinoma”, “˜200” for “˜250”

[15] = Metabolic stability in rat liver microsomes; assay type: in vitro ADME; conditions: FIG. 3
[16] = Metabolic stability in dog liver microsomes; assay type: in vitro ADME; conditions: FIG. 3
[17] = Metabolic stability in human liver microsomes; assay type: in vitro ADME; conditions: FIG. 3
[18] = MCF7, MCF-7, Breast cancer, 72 hours, MTT, read-out: IC50
[19] = PC-3, PC3, Prostate cancer, 72 hours, MTT, read-out: IC50
[20] = MKN-45, MKN45, Gastric cancer, 72 hours, MTT, read-out: IC50
[21] = DU-145, DU145, Prostate cancer, 72 hours, MTT, read-out: IC50
[22] = HCT-116, HCT116, Colon cancer, 72 hours, MTT, read-out: IC50
[23] = LNCap, Prostate cancer, 72 hours, MTT, read-out: IC50
[24] = HT-29, HT29, Colon cancer, 72 hours, MTT, read-out: IC50
[25] = N87, Gastric cancer, 72 hours, MTT, read-out: IC50

melting point: 172.4 to 174 °C
Compound: O=C(Nc1ccc([N+](=O)[O-])c(C(F)(F)F)c1)c1cc(Cl)ccc1O

IC50 [1, 18]: 3.69 µM | IC50 [2]: 1.17 µM | IC50 [3]: 0.43 µM | IC50 [4, 19]: 1.04 µM | IC50 [5, 20]: > 25 µM | IC50 [6, 21]: > 10 µM | IC50 [7, 22]: 5.64 µM | IC50 [8, 23]: 0.97 µM | IC50 [9, 24]: 31.1 µM
Compound: O=C(Nc1ccc([N+](=O)[O-])cc1Cl)c1cc(Cl)ccc1O [#166, niclosamide, reference compound]
IC50 [10, 25]: 0.14 µM

Compound: O=C(Nc1ccc([N+](=O)[O-])cc1Cl)c1cc(Cl)ccc1OC1OC(CO)C(O)C(O)C1O (centres unmarked) [MPT0L167, 5-Chloro-N-(2-chloro-4-nitro-phenyl)-2-(3,4,5-trihydroxy-6-hydroxymethyl-tetrahydro-pyran-2-yloxy)-benzamide]
melting point: 212.6 to 213.2 °C | IC50 [1, 18]: > 25 µM | tumor volume ([11]; FIG. 1(A)): significantly reduces tumor volume | body weight [11]: does not significantly reduce body weight | body weight ([11]; listed as MPLOL167): did not exhibit significant change | IC50 [4, 19]: > 25 µM | concentration of virus in serum (Viralplaque assays) ([12]; female ROSA, STAT1−/− mice, 100 mg/kg po,qd, serum at day 3, FIG. 4(A)): inhibition of Zika virus infection; also recorded: significantly inhibits Zika virua growth | body weight ([12]; mouse, in vivo, po, 100 mg/kg): does not significant reduce body weight; also recorded: not significantly changed | IC50 [5, 20]: > 25 µM | half-life in vivo compared with niclosamide (MPT0L166) [13]: longer half-life than MPT0L166 | AUC % Extrap obs ([13]; mean): 1.15% | AUC(0-inf) ([13]; rat, blood, iv, mean): 587 ng·h/mL | AUC(0-t) ([13]; rat, blood, iv, mean): 580 ng·h/mL | Cmax ([13]; rat, blood, iv, mean): 3880 ng/mL | MRT inf ([13]; rat, blood, iv, mean): 1.4 h | Tmax ([13]; rat, blood, iv, mean): 1.8 min | half-life ([13]; rat, blood, iv, mean): 7.38 h | clearance ([13]; rat, blood, iv, mean, read-out: CL obs (converted)): 59.1 mL/min/kg | Vd ([13]; rat, blood, iv, mean, read-out: VZ obs): 37.3 L/kg | IC50 [6, 21]: > 25 µM | tumor volume ([14]; FIG. 2(A)): significantly reduces tumor volume | body weight [14]: does not significantly reduce body weight | body weight ([14]; listed as MPLOL167): did not exhibit significant change | metabolic stability compared with MPT0L166 [15]: more stable than MPT0L166 | IC50 [7, 22]: > 50 µM | metabolic stability compared with MPT0L166 [16]: more stable than MPT0L166 | metabolic stability compared with MPT0L166 [17]: more stable than MPT0L166 | IC50 [8, 23]: > 25 µM | IC50 [9, 24]: > 50 µM | IC50 [10, 25]: > 25 µM

melting point: 195.5 to 197.2 °C | IC50 [1, 18]: > 25 µM | IC50 [4, 19]: > 25 µM | IC50 [5, 20]: > 25 µM | IC50 [6, 21]: > 25 µM | IC50 [7, 22]: > 50 µM | IC50 [8, 23]: 2.44 µM | IC50 [9, 24]: > 50 µM
Compound: CC(=O)OCOc1ccc(Cl)cc1C(=O)Nc1ccc([N+](=O)[O-])cc1Cl [MPT0L180, Acetic acid 4-chloro-2-(2-chloro-4-nitro-phenylcarbamoyl)-phenoxymethyl ester]
IC50 [10, 25]: > 25 µM

Compound: O=C(Nc1ccc([N+](=O)[O-])cc1Cl)c1cc(Cl)ccc1OC(=O)N1CCC(N2CCCCC2)CC1 [MPT0L196, [1,4′]Bipiperidinyl-1′-carboxylic acid 4-chloro-2-(2-chloro-4-nitro-phenylcarbamoyl)-phenyl ester]
melting point: 216.3 to 217.9 °C | IC50 ([1]; MCF7, 72 h): > 25 µM | IC50 ([4]; PC-3, 72 h): > 25 µM | IC50 ([5]; MKN-45, 72 h): > 25 µM | IC50 ([6]; DU-145, 72 h): > 25 µM | IC50 ([7]; HCT-116, 72 h): > 50 µM | IC50 ([8]; LNCaP, 72 h): > 25 µM | IC50 ([9]; HT-29, 72 h): > 50 µM | IC50 ([10]; 72 h): > 25 µM
